Laboratory results reported in US9656984B2, “PI3K/AKT/mTOR inhibitors and pharmaceutical uses thereof” (UNIVERSITE DE RENNES 1, priority 2013, dated 2017).

Tests used:
AKT phosphorylation = assay: In cellulo IC50 of AKT phosphorylation in CEM cells (Western blot densitometry); format: cell-based; settings: Homo sapiens, CCRF-CEM, 2 hours incubation, AKT phosphorylation vs whole AKT, read-out: In vivo IC50
Description: CEM cells were incubated for 2 hours with the indicated concentrations of each mentioned compound of formula (I). Cells were then lysed and 100 μg of protein was loaded per line in an SDS-PAGE. Bands from AKT phosphorylation and whole AKT observed by Western blot were scanned and quantified by densitometric analysis. Based on these values, an in cellulo IC50 (half maximal inhibitory concentration) was measured for each compound of formula (I).
(§1) Immunoblots Excepted for immunoprecipitation experiments in which cells were lyzed with RIPA buffer, cells were lyzed for 30 min at 4° C. in Lysis buffer (25 mM HEPES pH 7.4, 1% v/v Triton X-100, 150 mM NaCl, 2 mM EGTA supplemented with a mix of protease inhibitors). Protein concentration was determined by the bicinchoninic acid method (Pierce, Rockford, Ill., USA) according to the manufacturer's protocol. Proteins were resolved by 8, 10 or 12% SDS-PAGE and transferred to a nitrocellulose membrane (GE Healthcare, Buckinghamshire, UK). The membrane was blocked 15 min with TBST (50 mM Tris, 160 mM NaCl, 0.05% v/v Tween 20, pH 7.4) containing 5% w/v dried skimmed milk (TBS™). Primary antibody was incubated overnight at 4° C. in TBS™. The membrane was intensively washed (TBST) and then the peroxydase-labeled anti-mouse IgG1 or IgG2a (CliniSciences, Nanterre, France) was added for 45 min. Proteins were visualized with the enhanced chemiluminescence substrate kit (ECL RevelBIOt®, Ozyme, Saint Quentin en Yvelines, France).

[1] = tested on: PI3K/AKT activity (AKT phosphorylation); assay: PI3K/AKT/mTOR pathway inhibitory activity: level of AKT phosphorylation in CEM cells over time; format: cell-based, human; settings: 10 μM, FIGS. 7 and 8
Description: The CEM cell was incubated with 10 μM of each mentioned compound of formula (I) for the indicated times and then cells were lysed and 100 μg of protein was loaded per line and resolved by SDS-PAGE. The levels of AKT phosphorylation (hallmark of PI3K activation) and total AKT (loading control) were analyzed by Western blot and the amount of AKT phosphorylation relative to the total amount of protein AKT was quantified by densitometric analysis, the intensity of each band was scanned and the level of AKT phosphorylation was reported to the amount of whole AKT and the percentage of phosphorylated-AKT was depicted.
as §1

mTORC2 = mTORC2 (Homo sapiens, UniProt P42345); assay: Immunoblot of mTORC2 substrate Akt-Ser473 in CEM cells; format: cell-based; parameters: endogenous in cells; host or cells: CEM cells; settings: 2 hours, FIG. 16
Description: (§2) CEM cells (1·10^6 cells) were incubated with indicated concentrations of compound 25 for 2 hours and lysates of the cells were subjected to Western blot analysis. Inhibitory activity of compound 25 on mTORC1 substrates p70S6K-Thr389 and 4EBP1-Thr37 and 46 and on mTORC2 substrate Akt-Ser473 and on PDK1 substrate Akt-Thr308 was evaluated by immunoblotting. Total 4EBP1, p70S6K, Akt and […] serve as loading controls. The compounds of the invention and more particularly compound 25 may be competitive inhibitors of mTOR because they inhibit mTORC1 (4EBP1 and p70S6K) and mTORC2 substrates (AKT at S473) as shown in FIG. 16.
as §1, with “The membrane was intensively washed (TBST) and then the peroxydase-labeled anti-mouse IgG1 or IgG2a (CliniSciences, Nanterre, France) was added for 45 min. Proteins were visualized with the enhanced chemiluminescence substrate kit (ECL RevelBIOt®, Ozyme, Saint Quentin en Yvelines, France).” left out

[2] = tested on: MCF-7 (ER-positive) breast tumor cell line; assay: Cell death by MTT assay, MCF-7; format: cell-based, human; settings: 24 hours, mean of four experiments
Description: (§3) The ER-positive breast tumor cell lines MCF-7 and T47-D and the HER2 positive breast tumor cell lines MDA-MB-453 and BT474 (also ER-positive) were incubated with the indicated concentration of each mentioned compound of formula (I) for 24 hours and then cell death was assessed using MTT assay.
(§4) For each cell line, the percentage of cell death (mean of four experiments for cell lines MCF-7 and T47-D, and two experiments for cell lines MDA-MB-453 and BT474) is given in view of the increasing concentration of each tested compound of the invention.
(§5) Cell viability was assessed using the 3-[4,5-dimethylthiazol-2-yl]-2,5-diphenyltetrazolium bromide (MTT) viability assay (1). In brief, cells (4×10^4 per well) were cultured for 20 h in flat-bottomed 96 well plates with various concentrations of the apoptosis inducer. Then 0.015 ml of MTT (5 mg/ml in PBS) was added to each well and incubated for 4 h at 37° C. Formazan salt precipitats were dissolved by adding 0.115 ml of isopropyl alcohol containing 1% formic acid (v/v), and the absorbance was measured at 570 nm.

BT549 cells = assay: Boyden chamber cell migration, BT549 stimulated with CD95L; format: cell-based, human; settings: BT549, 1 μM, CD95L 100 ng/ml, 24 hours, FIG. 17A
Description: TNBC (MDA-MB-231 and BT549) cell lines were pre-incubated for 1 hour in presence or absence of non-cytotoxic amount of compound 25 (1 μM) and then treated or untreated with CD95L (100 ng/ml) for 24 hours. Cell migration was analyzed using Boyden chamber assay. Migrating Giemsa-stained cells were lysed and absorbance was measured at a wavelength of 560 nm. Values represent the means±SEM of three independently performed experiments. *p<0.05 as calculated using two-tailed Mann-Whitney test.
After membrane hydration of Boyden chambers (Millipore, Molsheim, France) containing 8 μm pore membranes, 10^5 cells were added to the top chamber. The bottom chamber was filled with low serum (1%)-containing medium in the presence or absence of cl-CD95L (100 ng/ml). Breast cancer cells were incubated for 24 h. To quantify invasion, cells were fixed with methanol and stained with Giemsa. Stained cells were then removed from the top-side of the membrane using a cotton-tipped swab and five representative pictures for each insert were taken of the invading cells from the reverse side. For each experiment, invading cells were lysed and absorbance at 560 nm was measured.

mTORC1 = mTORC1 (Homo sapiens, UniProt P42345); assay: Immunoblot of mTORC1 substrates p70S6K-Thr389 and 4EBP1-Thr37 and 46 in CEM cells; format: cell-based; parameters: AML cells (1.10^6 cells) deficient for TSC2 (TS2^−/−) or reconstituted with wild type TSC2; endogenous in cells; settings: 2 hours, FIG. 16
Description: as §2
as §1, with “The membrane was intensively washed (TBST) and then the peroxydase-labeled anti-mouse IgG1 or IgG2a (CliniSciences, Nanterre, France) was added for 45 min. Proteins were visualized with the enhanced chemiluminescence substrate kit (ECL RevelBIOt®, Ozyme, Saint Quentin en Yvelines, France).” left out

[3] = tested on: MDA-MB-453 (HER2 positive) breast tumor cell line; assay: Cell death by MTT assay, MDA-MB-453; format: cell-based, human; settings: 24 hours, mean of two experiments
Description: as §3, §4, §5

In the case of `O=[N+]([O-])C1=Cc2cc(Br)cc(Br)c2OC1c1ccc(Br)cc1` (centres unmarked) [Compound 25, 6,8-dibromo-2-(4-bromo-phenyl)-3-nitro-2H-chromene], the IC50 (AKT phosphorylation) is reported as 3000 nM, the “inhibitory activity on PI3K/AKT (level of AKT phosphorylation)” value [1] is reported as “very strong inhibitors” and the “inhibitory activity on mTORC2 substrate (AKT at S473)” value (mTORC2) is reported as “inhibit”. For the same compound, the “percentage of cell death” value ([2]; MCF-7, 6.25 μM) was 47.86%, the “percentage of cell death” value ([2]; MCF-7, 12.5 μM) was 63.54% and the “percentage of cell death” value ([2]; MCF-7, 25 μM) was 76.72%. The “percentage of cell death” value ([2]; MCF-7, 50 μM) was 94.09%, the “migration of tumor cells stimulated with CD95L” value (BT549 cells) was “abrogate” and the “inhibitory activity on mTORC1 substrates (4EBP1 and p70S6K)” value (mTORC1) was “inhibit”. For the same compound, the “percentage of cell death” value ([3]; MDA-MB-453, 0.390625 μM) was 0%, the “percentage of cell death” value ([3]; MDA-MB-453, 0.78125 μM) was 9.09% and the “percentage of cell death” value ([3]; MDA-MB-453, 1.5625 μM) was 81%. The “percentage of cell death” value ([3]; MDA-MB-453, 3.125 μM) was 85.57%, the “percentage of cell death” value ([3]; MDA-MB-453, 6.25 μM) was 89.213% and the “percentage of cell death” value ([3]; MDA-MB-453, 12.5 μM) was 95.09%. The “percentage of cell death” value ([3]; MDA-MB-453, 25 μM) was 99.35% and the “percentage of cell death” value ([3]; MDA-MB-453, 50 μM) was 100.76%.
